# Measurements as given in patent US11234918B2, “Methods for botanical and/or algae extraction” (BASF CORPORATION, priority 2012, dated 2022).
# Columns and labels:
# human keratinocytes [1] = experiment: UVB light protection: PGE2 release from UVB-irradiated in vitro cultivated human keratinocytes, ELISA (UVB-PGE2); type: cell-based; details: positive control aspirin at 0.03%, control with UV = 100
# Protocol: (§1) Cell Protection Effect Against UVB on In Vitro Cultivated Human Keratinocytes
# (§2) Method: To carry out the tests, a defined medium (DMEM), which comprises 10% fetal calf serum, was inoculated with the keratinocytes and the plant extract (diluted with saline solution) was added 72 hours after inoculation.
# (§3) The keratinocytes were then irradiated with a UVB dose (30 mJ/cm^2-tubes: DUKE GL40E).
# Following further incubation for 1 day at 37° C. and at 5% CO2, the LDH and the PGE2 content in the supernatant was determined. […] The content of PGE2 was determined using an ELISA test (ELISA kit from Roche).
# UVB-PGE2 prostaglandins E2 determined using an ELISA test (ELISA kit from Roche).
# human keratinocytes [2] = experiment: UVB light protection: LDH release from UVB-irradiated in vitro cultivated human keratinocytes (UVB-LDH); type: cell-based; details: positive control aspirin at 0.03%, control with UV = 100
# Description: Antiinflammatory Properties In Vitro-UVB Light Protection (UVB-LDH and UVB-PGE2)
# as §1
# This membrane stress is indicated by the release of the cytoplasm enzyme lactate dehydrogenase (LDH). The effect of UVB radiation was investigated on keratinocytes in vitro by determining the release of the cytoplasm enzyme LDH (lactate dehydrogenase). This enzyme serves as a marker for cell damage.
# as §2, §3
# Following further incubation for 1 day at 37° C. and at 5% CO2, the LDH and the PGE2 content in the supernatant was determined. The content of LDH (lactate dehydrogenase) was determined by means of an enzyme reaction (kit used to investigate the LDH content from Roche). The content of PGE2 was determined using an ELISA test (ELISA kit from Roche). Following trypsin treatment, the cells were centrifuged and counted.
# UVB-LDH LDH or lactate dehydrogenase determination by means of an enzyme reaction
smiles,measurement,setting,value
CC(=O)Oc1ccccc1C(=O)O [aspirin],PGE2 release (% of UV control),human keratinocytes [1]; Table 4,-6%
same,PGE2 release (% of UV control),human keratinocytes [1]; Table 6,0%
same,LDH release (% of UV control),human keratinocytes [2]; Table 4,15%
same,LDH release (% of UV control),human keratinocytes [2]; Table 6,0%
